From ChEMBL document CHEMBL1128323, “Antifungal agents. 9. 3-Aryl-4-[alpha-(1H-imidazol-1-yl)arylmethyl]pyrroles: a new class of potent anti-Candida agents” (1995)
≈ marks a conversion by molar mass, not a printed value.

How the values were obtained:
Assay type in all cases: functional
[1] = test system: Candida albicans; assay: Inhibitory activity against Candida albicans (40 clinical isolates), determined at pH-5.8
[2] = test system: Candida albicans; assay: Inhibitory activity against the Candida albicans (40 clinical isolates), determined at pH-5.8
[3] = test system: Candida; assay: Resistance against all Candida. species (40 clinical isolates) at 256 micro g/mL (pH=5.8). Activity is expressed as R%.
[4] = test system: Candida albicans; assay: Inhibitory activity against Candida albicans (40 clinical isolates), determined at pH-7.2
[5] = test system: Candida; assay: 90% inhibitory activity against Candida. species (40 clinical isolates) determined at pH-7.2
[6] = test system: Candida; assay: Percent resistance against all Candida. species (40 clinical isolates) at 256 micro g/mL (pH=7.2), activity is expressed as R%.
[7] = test system: Candida albicans; assay: 50% inhibitory activity against Candida albicans (40 clinical isolates) determined at pH-7.2; conditions: Candida albicans; read-out: MIC50
[8] = test system: Candida albicans; assay: Resistance against Candida. albicans (40 clinical isolates) at 256 ug/mL (pH=7.2), activity is expressed as R%.
[9] = test system: Candida albicans; assay: Inhibitory activity against the Candida albicans (40 clinical isolates), determined at pH-7.2
[10] = test system: Candida albicans; assay: 50% inhibitory activity against Candida albicans (40 clinical isolates) determined at pH-5.8
[11] = test system: Candida; assay: Inhibitory activity against Candida. species (40 clinical isolates), determined at pH-5.8
[12] = test system: Candida; assay: Inhibitory activity against Candida. species. (40 clinical isolates), determined at pH-7.2
[13] = test system: Candida; assay: 50% inhibitory activity against the Candida. species (40 clinical isolates) was determined at pH-7.2
[14] = test system: Candida albicans; assay: Percent resistance against Candida albicans (40 clinical isolates) at 256 micro g/mL (pH=5.8), activity is expressed as R%.
[15] = test system: Candida; assay: Inhibitory activity against Candida. species. (40 clinical isolates), determined at pH-5.8

Fc1ccc(C(c2c[nH]cc2-c2ccc(Cl)c(Cl)c2)n2ccnc2)cc1 (stereo not given)
MIC [1]: 7.2 µg/mL (≈ 18.6 µM)
MIC90 [2]: 16 µg/mL (≈ 41.4 µM)
R [3]: 0%
MIC [4]: 7.2 µg/mL (≈ 18.6 µM)
MIC90 [5]: 32 µg/mL (≈ 82.8 µM)
R [6]: 0%
MIC50 [7]: 4 µg/mL (≈ 10.4 µM)
R [8]: 0%
MIC90 [9]: 16 µg/mL (≈ 41.4 µM)
MIC50 [10]: 4 µg/mL (≈ 10.4 µM)
MIC50 [11]: 16 µg/mL (≈ 41.4 µM)
MIC90 [11]: 32 µg/mL (≈ 82.8 µM)
MIC [12]: 26.6 µg/mL (≈ 68.9 µM)
MIC50 [13]: 32 µg/mL (≈ 82.8 µM)
R [14]: 0%
MIC [15]: 16.4 µg/mL (≈ 42.5 µM)

O=[N+]([O-])c1ccc(C(c2c[nH]cc2-c2ccccc2Cl)n2ccnc2)cc1 (stereo not given)
MIC [1]: > 50.7 µg/mL
MIC90 [2]: 64 µg/mL (≈ 169 µM)
R [3]: 0%
MIC [4]: > 91.6 µg/mL
MIC90 [5]: > 256 µg/mL
R [6]: 30%
MIC50 [7]: 32 µg/mL (≈ 84.5 µM)
R [8]: 15%
MIC90 [9]: 256 µg/mL (≈ 676 µM)
MIC50 [10]: 32 µg/mL (≈ 84.5 µM)
MIC50 [11]: 64 µg/mL (≈ 169 µM)
MIC90 [11]: 64 µg/mL (≈ 169 µM)
MIC [12]: > 200 µg/mL
MIC50 [13]: 64 µg/mL (≈ 169 µM)
R [14]: 0%
MIC [15]: 48.4 µg/mL (≈ 128 µM)

Clc1ccc(-c2c[nH]cc2C(c2ccc(-n3cccc3)cc2)n2ccnc2)c(Cl)c1 (stereo not given)
MIC [1]: 33.7 µg/mL (≈ 77.8 µM)
MIC90 [2]: 64 µg/mL (≈ 148 µM)
R [3]: 0%
MIC [4]: > 256 µg/mL
MIC90 [5]: > 256 µg/mL
R [6]: 100%
MIC50 [7]: > 256 µg/mL
R [8]: 100%
MIC90 [9]: > 256 µg/mL
MIC50 [10]: 16 µg/mL (≈ 36.9 µM)
MIC50 [11]: 16 µg/mL (≈ 36.9 µM)
MIC90 [11]: 32 µg/mL (≈ 73.8 µM)
MIC [12]: > 256 µg/mL
MIC50 [13]: > 256 µg/mL
R [14]: 0%
MIC [15]: 19.5 µg/mL (≈ 45 µM)

Cc1ccc(C(c2c[nH]cc2-c2ccccc2Cl)n2ccnc2)cc1 (stereo not given)
MIC [1]: 35.4 µg/mL (≈ 102 µM)
MIC90 [2]: 64 µg/mL (≈ 184 µM)
R [3]: 0%
MIC [4]: 13.2 µg/mL (≈ 37.9 µM)
MIC90 [5]: 32 µg/mL (≈ 92 µM)
R [6]: 0%
MIC50 [7]: 4 µg/mL (≈ 11.5 µM)
R [8]: 0%
MIC90 [9]: 64 µg/mL (≈ 184 µM)
MIC50 [10]: 32 µg/mL (≈ 92 µM)
MIC50 [11]: 32 µg/mL (≈ 92 µM)
MIC90 [11]: 64 µg/mL (≈ 184 µM)
MIC [12]: 30.1 µg/mL (≈ 86.5 µM)
MIC50 [13]: 32 µg/mL (≈ 92 µM)
R [14]: 0%
MIC [15]: 41.7 µg/mL (≈ 120 µM)

Clc1ccc(C(c2c[nH]cc2-c2ccccc2Cl)n2ccnc2)c(Cl)c1 (stereo not given)
MIC [1]: 5.19 µg/mL (≈ 12.9 µM)
MIC90 [2]: 16 µg/mL (≈ 39.7 µM)
R [3]: 0%
MIC [4]: 7.3 µg/mL (≈ 18.1 µM)
MIC90 [5]: 32 µg/mL (≈ 79.5 µM)
R [6]: 0%
MIC50 [7]: 4 µg/mL (≈ 9.93 µM)
R [8]: 0%
MIC90 [9]: 16 µg/mL (≈ 39.7 µM)
MIC50 [10]: 4 µg/mL (≈ 9.93 µM)
MIC50 [11]: 16 µg/mL (≈ 39.7 µM)
MIC90 [11]: 16 µg/mL (≈ 39.7 µM)
MIC [12]: 21.8 µg/mL (≈ 54.1 µM)
MIC50 [13]: 32 µg/mL (≈ 79.5 µM)
R [14]: 0%
MIC [15]: 13.7 µg/mL (≈ 34 µM)
